Reference: publication PMC11624193, “Coupling cellular drug-target engagement to downstream pharmacology with CeTEAM” (Nature Communications, 2024)
Changes are numbered by the printed parent chain.

How the values were obtained:
NUDT15 [1] = biological target: T1, NUDT15 (Homo sapiens, UniProt Q9NV35); assay: […] Å co-crystal structure; also enzyme-coupled malachite green inhibition assay and DSF; type: biochemical
T1 construct: full-length wild-type
T1 sequence (Q9NV35 1-164): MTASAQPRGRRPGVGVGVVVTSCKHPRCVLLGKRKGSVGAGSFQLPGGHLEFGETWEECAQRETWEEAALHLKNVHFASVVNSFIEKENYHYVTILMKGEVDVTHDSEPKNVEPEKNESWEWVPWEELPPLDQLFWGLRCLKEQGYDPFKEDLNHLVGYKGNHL

NUDT15 [2] = biological target: T2, NUDT15 (Homo sapiens, UniProt Q9NV35, R139C); assay: DSF thermal shift of purified protein with […] compound; HA-R139C stabilization in cells; type: binding; conditions: read-out: DSF thermal shift of purified protein with 50 μM compound; HA-R139C stabilizatio
T2 construct: full-length R139C
T2 sequence (Q9NV35 1-164 R139C): T1 sequence (Q9NV35 1-164) with R139C

NUDT15 [3] = biological target: T1, NUDT15; assay: enzyme-coupled malachite green assay with dGTP as substrate; type: biochemical

| SMILES | IC50 (NUDT15 [1]) | ΔTm at 50 µM (NUDT15 [2]) | IC50 (NUDT15 [3]) |
| --- | --- | --- | --- |
| Nc1nc(S)c2ncn(C3CCCCC3)c2n1 [NSC56456, 2-amino-9-cyclohexyl-3H-purine-6-thione] | 0.383 µM | 7 °C | – |
| CC(C)(c1ccccc1)n1cnc2c(=S)nc(N)[nH]c21 [TH8234, 2-amino-9-(2-phenylpropan-2-yl)-3H-purine-6(9H)-thione] | – | – | 0.375 µM |
